The values that follow come from publication PMC4876372 (Scientific Reports, 2016).

Each structure is given as a SMILES string. Where two headings read alike, the source gives them in different places.

Data set [1] has as its target T1, His-tagged human recombinant MTH1 protein (Homo sapiens, UniProt P36639).
T1 construct: His; purchased ProSpec
Nature of the data set: MTH1 enzyme assay (PPiLight pyrophosphate detection). Type of data set: biochemical. The note with it: for IC50: MTH1 2 nM; for Ki: Dixon plot; for manner of MTH1 inhibition: with respect to 8-oxo-dGTP and 2-OH-dATP, Lineweaver-Burk. The method, then:
An MTH1 enzyme assay was performed as described previously with minor modifications. Briefly, test compounds were dissolved in an assay buffer [100 mM Tris-acetate, 40 mM NaCl, 10 mM Mg(OAc)2, 0.005% Tween-20, and 2 mM dithiothreitol (DTT), pH 7.5] containing His-tagged human recombinant MTH1 protein (2 nM; ProSpec). […] Relative MTH1 activity was measured by monitoring the pyrophosphate (PPi) generated through MTH1-catalyzed nucleotide triphosphate hydrolysis. The luciferase-mediated luminescence signal was recorded for 30 min using a luminometer (Molecular Devices).

Data set [2] has as its system nuclear 53BP1 foci in HeLa cells. Nature of the data set: 53BP1 foci immunofluorescence (DNA damage). Type of data set: cell-based, human. The note with it: 24 h, only at the higher concentrations (100-300 μM). How it is done:
For 53BP1, test compound–treated HeLa cells were fixed in 3% formalin in PBS containing 0.1% Triton X-100 for 15 min and permeabilized in 0.5% Triton X-100 for 5 min. After blocking with 10% FBS and 0.1% Triton X-100 in PBS for 1 h, cells were incubated sequentially with a primary antibody against 53BP1 (1:600, sc-22760; Santa Cruz Biotechnology) in blocking solution at 37 °C for 1 h and with Alexa Fluor 568-conjugated secondary antibody (1:400, Life Technologies) under the same condition.
After a quick rinse in PBS, DNA was counterstained with 0.5 µg/mL Hoechst 33342 (Sigma-Aldrich) in PBS at room temperature for 10 min. Images were analyzed on a fluorescence microscope (Delta Vision). […]

The next data set has as its target T2, porcine tubulin (Sus scrofa, UniProt P02550+P02554).
T2 construct: purchased Cytoskeleton
Nature of the data set: In vitro tubulin polymerization assay. Type of data set: biochemical. The following applies: even at 300 μM. How it is done: In vitro tubulin polymerization assay was performed using a tubulin polymerization assay kit (Cytoskeleton) according to the manufacturer’s instructions. Briefly, lyophilized porcine tubulin was solubilized to a final concentration of 2 mg/mL in reaction buffer containing 80 mM piperazine-N,N′-bis(2-ethanesulfonic acid) (PIPES; pH 6.9), 2 mM MgCl2, 0.5 mM ethylene glycol tetraacetic acid (EGTA), 1 mM guanosine-5′-triphosphate (GTP), 10 μM fluorescent reporter, and 20% glycerol, and kept at 4 °C. Compounds (100 × DMSO stock solutions) were added to prewarmed half-area 96-well black plates. Cold tubulin solution was added to the wells. The plate contents were mixed by shaking, and fluorescence (Ex 350 nm, Em 435 nm) was read every minute for 1 h using a fluorescence microplate reader (Molecular Devices).

In data set [3] the test system is PANC-1, MIA PaCa-2, A431, Jurkat, MG-63, NIH3T3 and NIH3T3/KRAS cells. Type of data set: cell-based. The following applies: 72 or 96 h, WST-8. How it is done:
Human cancer cell lines HeLa (cervical cancer), MIA PaCa-2 (pancreatic cancer), A431 (epidermoid carcinoma), and human embryonic kidney derived cell line HEK293T were cultured in Dulbecco’s Modified Eagle’s Medium (DMEM; Invitrogen) containing 10% fetal bovine serum (FBS), penicillin G (50 units/mL) and streptomycin (50 µg/mL). Human cancer cell lines Panc-1 (pancreatic cancer) and Jurkat (T cell lymphoma) were cultured in RPMI (Gibco) containing 10% FBS, penicillin G (50 units/mL) and streptomycin (50 µg/mL). Human osteosarcoma cell line MG-63, mouse embryonic fibroblast NIH3T3 cells and its transformant NIH3T3/KRAS cells1 were cultured in DMEM (Sigma-Aldrich) containing 10% calf serum, glutamine (0.3 g/L), penicillin G (50 units/mL), and streptomycin (50 µg/mL). All cell lines were incubated at 37 °C in a humidified atmosphere containing 5% CO2.
The cells were seeded in 96-well plates, cultured overnight, and treated with test compounds for the indicated time. Subsequently, cell viability was measured by the WST-8 assay, using Cell Count Reagent SF (Nacalai Tesque) according to the manufacturer ’s instructions, with the measurement of absorbance set at 450 nm on the ARVO SX 1420 Multilabel Counter (Wallac). […]

Setting [4] is: substrate 2-OH-dATP (8.3 μM), read-out: IC50 of MTH1 inhibitory activity, 2-OH-dATP.
The mark [5] stands for this setting: substrate 2-OH-dATP, read-out: Ki for 2-OH-dATP.
[6] abbreviates: substrate 8-oxo-dGTP, read-out: Ki for 8-oxo-dGTP.

T2 sequence (P02550 whole entry): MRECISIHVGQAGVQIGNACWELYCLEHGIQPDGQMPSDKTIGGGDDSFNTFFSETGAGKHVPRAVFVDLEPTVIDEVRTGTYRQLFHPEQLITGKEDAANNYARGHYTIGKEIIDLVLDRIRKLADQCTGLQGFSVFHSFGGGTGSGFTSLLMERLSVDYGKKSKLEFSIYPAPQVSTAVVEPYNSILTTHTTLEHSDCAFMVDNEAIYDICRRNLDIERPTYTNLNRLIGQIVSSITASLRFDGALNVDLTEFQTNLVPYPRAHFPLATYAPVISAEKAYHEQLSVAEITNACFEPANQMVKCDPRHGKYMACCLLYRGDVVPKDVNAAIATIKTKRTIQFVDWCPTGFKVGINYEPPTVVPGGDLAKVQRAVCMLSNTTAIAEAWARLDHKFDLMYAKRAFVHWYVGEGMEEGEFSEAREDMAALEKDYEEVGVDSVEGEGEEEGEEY
T2 sequence (P02554 whole entry): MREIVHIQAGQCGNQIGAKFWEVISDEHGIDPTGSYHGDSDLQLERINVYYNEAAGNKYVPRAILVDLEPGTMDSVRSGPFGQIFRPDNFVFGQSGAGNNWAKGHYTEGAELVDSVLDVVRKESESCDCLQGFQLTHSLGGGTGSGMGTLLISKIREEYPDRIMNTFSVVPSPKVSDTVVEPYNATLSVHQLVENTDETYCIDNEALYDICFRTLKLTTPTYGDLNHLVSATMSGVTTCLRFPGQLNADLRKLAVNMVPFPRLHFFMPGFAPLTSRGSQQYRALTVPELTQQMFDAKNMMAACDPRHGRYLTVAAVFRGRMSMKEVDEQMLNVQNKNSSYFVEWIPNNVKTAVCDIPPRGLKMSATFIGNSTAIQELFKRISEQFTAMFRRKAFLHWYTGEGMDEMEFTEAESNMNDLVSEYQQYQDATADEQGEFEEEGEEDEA

The IC50 is the point on the concentration scale where inhibition reaches its midpoint. As a reminder, the Ki is a measure of affinity in units of concentration, obtained from inhibition or displacement. Regarding `Nc1nc(NCCc2ccccc2)c2nc[nH]c2n1` [NPD9948], the IC50 amounted to 500 ± 210 nM in data set [1] (setting [4]) and 290 ± 50 nM in data set [1] (substrate 8-oxo-dGTP (13.2 μM), read-out: IC50 of MTH1 inhibitory activity, 8-oxo-dGTP). Further, the Ki in data set [1] (setting [5]) came to 220 ± 40 nM; in data set [1] (setting [6]), 130 ± 50 nM. For the same compound, in data set [1], the “manner of MTH1 inhibition” value is reported as “competitive”. Further, in data set [2], the “DNA damage (nuclear 53BP1 foci formation)” value is on record as “increased nuclear 53BP1 foci formation”. Moreover, the “effect on tubulin polymerization in vitro” value at porcine tubulin is “did not affect tubulin polymerization”. Moreover, in data set [3], the “cytotoxicity against cancer cell lines and KRAS-transformed fibroblast cells” value is listed as “less potent cytotoxicity”.
For the compound `CC1(C)CC2CC(C)(CN2c2ncnc3[nH]cnc23)C1` (stereo not drawn) [NPD7155], the IC50 in data set [1] (setting [4]) was 380 ± 160 nM. The values for the Ki in data set [1] (setting [5]) and in data set [1] (setting [6]) were 180 ± 30 nM and 100 ± 40 nM, respectively. Moreover, the “manner of MTH1 inhibition” value in data set [1] is on record as “competitive”. Besides, the “DNA damage (nuclear 53BP1 foci formation)” value in data set [2] was “increased nuclear 53BP1 foci formation”. For the same compound, on porcine tubulin, the “effect on tubulin polymerization in vitro” value is given as “did not affect tubulin polymerization”. Also, in data set [3], the “cytotoxicity against cancer cell lines and KRAS-transformed fibroblast cells” value is “less potent cytotoxicity”.
